# Values joined by “and” are separate entries in the source; they are usually repeats but may differ in a detail not shown here. Equal values may be shown once.
# How the values were obtained:
# [1] = tested on: mouse air pouch; assay: Inflammation Bioassay Protocol: mouse air pouch assay, carrageenan-induced, white blood cell count in exudate; format: in vivo, mice
# Experimental: A mouse air pouch assay was used to determine the therapeutic effectiveness of various extracts/compounds as anti-inflammatories in the present invention.
# To induce air pouches, 10-15 week old mice were injected subcutaneously on the back with 3 ml of air.
# On day 2, the pouches were reinflated with 1.5 m. of air.
# On day 6, inflammation was induced by injecting 1 ml of a suspension of carrageenan (2% weight/volume in calcium-free and magnesium-free phosphate buffered saline (PBS) solution) into the air pouch.
# 100 μL of solution including test compounds were injected with the carrageenan (additional 100 μL of PBS were injected into the controls).
# After 4 hours, the mice were sacrificed by including C02 narcosis, the pouches were flushed with 2 ml of PBS, and exudates were harvested.
# Exudates were diluted 1:1 with 0.015% methylene blue in PBS.
# White blood cells were counted in a standard hemocytometer chamber (American Optical, Buffalo, N.Y.).
# [2] = tested on: capsaicin-treated hindpaw; assay: Analgesic Bioassay Protocol: rat hindpaw withdrawal latency to radiant heat after capsaicin sensitisation; format: in vivo, Sprague-Dawley rats; details: n=5
# Experimental: A rat hindpaw assay was used to determine the therapeutic effectiveness of various extracts/compounds as analgesics in the present invention. Sprague-Dawley rats (225-250 g, male) were anesthetized with urethane and placed on their sides on a disposable Chux pad. Both hindpaws for each rat were blackened with India ink which was allowed to dry for 10 minutes. An ELH projector lamp calibrated to a standard mW/cm was used as a pain stimulus and was condensed into an area of 5×15 mm on each hindpaw and placed perpendicular to, and 72 mm from, each hindpaw. Multiple baseline hindpaw withdrawal latency times were recorded (in seconds) for each medial and each lateral surface of each hindpaw. Subsequently, 100 μl of 1 μmolar capsaicin was applied with a pipette to cover one hindpaw of each animal and allowed to dry for 10 minutes, rendering the capsaicin-treated hindpaw hypersensitive to pain stimulus relative to the non-capsaicin treated hindpaw (and thereby decreasing the withdrawal latency period for the capsaicin-treated hindpaw relative to the non-treated hindpaw). Both hindpaws were then re-blackened with India ink which was allowed to dry for 10 minutes, and hindpaw withdrawal latencies were recorded for both the capsaicin-treated and untreated hindpaws on both the medial and lateral aspects of both hindpaws at 20, 25 and 30 minutes. […] By contrast, only minor drops in the withdrawal latency periods of the untreated hindpaws was seen, and the effect that was observed is believed to be due to the central mechanism effect of capsaicin-treatment on the other hindpaw. To determine the analgesic properties of each fraction, 100 μl of each fraction were applied to the capsaicin-treated hindpaw by pipette and permitted to dry (the untreated hindpaw was not treated with the fraction). Hindpaw withdrawal latencies were then recorded at 5, 20 and 30 minutes for both the capsaicin/fraction-treated hindpaw and the untreated hindpaw. An increase in the hindpaw withdrawal time was indicative of an analgesic effect by the applied fraction.
# [3] = white blood cells in air pouch exudate, individual mice, 4 hours after carrageenan
compound,measurement,setting,value
"O=c1cc(-c2ccc(O)c(O)c2)oc2cc(OC3OC(COC4OCC(O)(CO)C4O)C(O)C(O)C3O)cc(O)c12 [Compound 580, luteolin 7-(6″-β-D-apiofuranosyl)-β-D-glucopyranoside]",Average Cells (10^6/ml),"[1]; mean of five treated mice, control mice 2.67",1.00 10^6/ml
same,"anti-inflammatory effects, comparison with reference drugs",[1]; result in words,"comparable to 0.5-1.0 mg/kg/week of chronic methotrexate, or 1.5 mg/kg acute dose of dexamethasone"
same,Cells (10^6/ml),[1]; [3],0.75 10^6/ml and 1.17 10^6/ml and 0.72 10^6/ml and 1.16 10^6/ml and 1.22 10^6/ml
same,Cells/ml,[1]; [3],7.50E+05 Cells/ml and 1.17E+06 Cells/ml and 7.20E+05 Cells/ml and 1.16E+06 Cells/ml and 1.22E+06 Cells/ml
same,Average Count,"[1]; white blood cells, average of 4 hemocytometer chambers, individual mice, 100 μL test solution with carrageenan, exudate after 4 hours",37.50 and 58.50 and 24.00 and 38.75 and 40.50
same,Avg All Cap,"[2]; average of all post-capsaicin latencies, before test substance",6.3 s
same,Avg Ext 5,"[2]; latency 5 minutes after application to capsaicin-treated hindpaw, amount (mg)",13.7 s
same,Avg Ext 20,"[2]; latency 20 minutes after application to capsaicin-treated hindpaw, amount (mg)",9.6 s
same,Avg Cap 20,"[2]; latency 20 minutes after capsaicin, before test substance",5.8 s
same,Avg Cap 25,"[2]; latency 25 minutes after capsaicin, before test substance",7.2 s
same,Avg Ext 30,"[2]; latency 30 minutes after application to capsaicin-treated hindpaw, amount (mg)",9.4 s
same,Avg Cap 30,"[2]; latency 30 minutes after capsaicin, before test substance",6 s
same,Avg Baseline,[2]; withdrawal latency before capsaicin and before test substance,9.3 s

# Source: patent publication US7759317B2, “Analgesic and anti-inflammatory compositions and methods with flavonoid glycoside-type compounds” (BMB Patent Holding Corporation, priority 2006, dated 2010)
